The values that follow come from paper PMC4901312, “Ecological factors drive natural selection pressure of avian aryl hydrocarbon receptor 1 genotypes” (Scientific Reports, 2016).

Common to all, as to experiment: luciferase reporter gene transactivation assay (ckCYP1A5 promoter) in transfected COS-7 cells; LOEC
Common to all, as to assay type: cell-based

The target in experiment [1] is T1, black-footed albatross AHR1 (bfaAHR1) (Phoebastria nigripes, UniProt Q76EQ7).
T1 construct: full-length cDNA in pcDNA3.1 zeo (+), expressed in COS-7 cells; with chicken ARNT1 (ckARNT1)
T1 sequence (Q76EQ7 1-861): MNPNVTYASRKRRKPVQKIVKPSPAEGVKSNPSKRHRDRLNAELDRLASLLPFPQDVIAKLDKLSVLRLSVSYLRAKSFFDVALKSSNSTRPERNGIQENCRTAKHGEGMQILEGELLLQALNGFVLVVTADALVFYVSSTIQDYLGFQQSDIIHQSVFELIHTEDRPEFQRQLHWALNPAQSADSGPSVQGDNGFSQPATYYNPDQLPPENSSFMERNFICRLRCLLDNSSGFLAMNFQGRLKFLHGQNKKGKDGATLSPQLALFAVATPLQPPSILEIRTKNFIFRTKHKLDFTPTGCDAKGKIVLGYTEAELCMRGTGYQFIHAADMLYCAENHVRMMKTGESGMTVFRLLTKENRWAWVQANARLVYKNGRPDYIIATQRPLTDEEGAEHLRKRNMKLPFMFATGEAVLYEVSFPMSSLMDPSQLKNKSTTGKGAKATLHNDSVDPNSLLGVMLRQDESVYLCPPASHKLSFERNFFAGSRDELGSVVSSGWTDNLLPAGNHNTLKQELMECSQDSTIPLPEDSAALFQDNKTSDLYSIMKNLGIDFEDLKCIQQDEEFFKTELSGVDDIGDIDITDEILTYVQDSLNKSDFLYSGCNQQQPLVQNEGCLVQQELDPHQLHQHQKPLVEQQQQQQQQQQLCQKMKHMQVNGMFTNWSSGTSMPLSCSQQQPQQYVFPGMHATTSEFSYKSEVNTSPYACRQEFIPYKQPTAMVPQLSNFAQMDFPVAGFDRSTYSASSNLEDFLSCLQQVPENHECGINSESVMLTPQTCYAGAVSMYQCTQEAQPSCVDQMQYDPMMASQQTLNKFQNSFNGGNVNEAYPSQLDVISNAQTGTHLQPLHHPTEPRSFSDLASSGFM

For experiment [2], the target named is T2, chicken AHR1 (ckAHR1) (Gallus gallus, UniProt Q9I9E2).
T2 construct: full-length cDNA in pcDNA3.1 zeo (+), expressed in COS-7 cells; with chicken ARNT1 (ckARNT1)
T2 sequence (Q9I9E2 1-858): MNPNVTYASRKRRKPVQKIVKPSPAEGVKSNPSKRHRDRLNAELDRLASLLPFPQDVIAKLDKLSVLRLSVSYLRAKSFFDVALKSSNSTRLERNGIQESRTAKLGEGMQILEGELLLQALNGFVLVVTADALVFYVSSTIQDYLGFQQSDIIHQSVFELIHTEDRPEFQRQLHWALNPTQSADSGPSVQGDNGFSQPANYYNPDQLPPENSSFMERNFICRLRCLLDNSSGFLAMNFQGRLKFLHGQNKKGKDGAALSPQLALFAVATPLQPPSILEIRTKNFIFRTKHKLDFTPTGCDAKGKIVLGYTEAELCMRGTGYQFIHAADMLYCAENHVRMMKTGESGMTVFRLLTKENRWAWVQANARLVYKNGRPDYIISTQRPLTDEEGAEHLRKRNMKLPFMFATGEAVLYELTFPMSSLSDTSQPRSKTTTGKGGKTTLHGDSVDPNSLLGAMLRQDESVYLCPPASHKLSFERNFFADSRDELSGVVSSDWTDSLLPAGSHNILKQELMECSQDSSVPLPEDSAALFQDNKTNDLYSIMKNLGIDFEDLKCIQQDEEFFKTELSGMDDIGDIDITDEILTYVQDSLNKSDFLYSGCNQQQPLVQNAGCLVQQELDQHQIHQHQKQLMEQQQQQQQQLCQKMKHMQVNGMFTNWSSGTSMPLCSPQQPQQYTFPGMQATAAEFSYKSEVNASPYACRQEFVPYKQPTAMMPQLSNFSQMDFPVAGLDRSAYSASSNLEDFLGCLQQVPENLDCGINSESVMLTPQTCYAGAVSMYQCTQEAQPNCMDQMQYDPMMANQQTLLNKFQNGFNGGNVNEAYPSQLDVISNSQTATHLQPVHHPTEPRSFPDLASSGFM

Experiment [3] has as its target T3, common cormorant AHR1 (ccAHR1) (Phalacrocorax carbo, UniProt Q76CM2).
T3 construct: gene AHR 1; full-length cDNA in pcDNA3.1 zeo (+), expressed in COS-7 cells; with chicken ARNT1 (ckARNT1)
T3 sequence (Q76CM2 1-860): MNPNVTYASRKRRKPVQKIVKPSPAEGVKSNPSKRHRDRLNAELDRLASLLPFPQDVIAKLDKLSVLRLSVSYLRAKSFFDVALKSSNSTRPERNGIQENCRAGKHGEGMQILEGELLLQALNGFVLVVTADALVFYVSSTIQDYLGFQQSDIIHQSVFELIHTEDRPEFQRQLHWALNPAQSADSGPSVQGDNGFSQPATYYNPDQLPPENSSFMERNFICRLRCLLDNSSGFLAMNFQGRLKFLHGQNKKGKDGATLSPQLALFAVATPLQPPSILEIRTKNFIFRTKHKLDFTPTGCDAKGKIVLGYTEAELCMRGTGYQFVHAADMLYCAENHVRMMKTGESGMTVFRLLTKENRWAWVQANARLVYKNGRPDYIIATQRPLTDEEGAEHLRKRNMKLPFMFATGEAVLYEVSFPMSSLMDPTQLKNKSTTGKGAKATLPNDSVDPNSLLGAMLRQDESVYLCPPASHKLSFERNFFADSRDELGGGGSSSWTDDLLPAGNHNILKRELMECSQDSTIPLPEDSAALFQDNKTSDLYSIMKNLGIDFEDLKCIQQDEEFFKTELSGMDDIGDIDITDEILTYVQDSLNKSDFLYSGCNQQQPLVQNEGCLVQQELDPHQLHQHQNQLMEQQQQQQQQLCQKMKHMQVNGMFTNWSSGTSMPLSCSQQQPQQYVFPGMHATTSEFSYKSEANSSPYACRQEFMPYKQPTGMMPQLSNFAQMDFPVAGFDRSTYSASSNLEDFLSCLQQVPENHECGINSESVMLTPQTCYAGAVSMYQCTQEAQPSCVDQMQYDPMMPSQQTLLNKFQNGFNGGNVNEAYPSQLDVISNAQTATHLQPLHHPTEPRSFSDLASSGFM

As for `Brc1ccc2c(c1)Oc1cc(Br)cc(Br)c1O2` [1,3,7-TriBDD, 1,3,7-tribromodibenzo-p-dioxin], the “luciferase reporter gene transactivation assay (ckCYP1A5 promoter) in transfecte” value in experiment [1] is 12 nM; in experiment [2] it was 1.2 nM; in experiment [3], 120 nM.
